Measurements reported in patent publication US11395857B2, “Radiolabeled melanocortin 1 receptor-specific alpha-melanocyte-stimulating hormone analogues for imaging or therapy” (PROVINCIAL HEALTH SERVICES AUTHORITY, priority 2018, dated 2022).
Read-outs that look alike come from different tables or passages of the source.

Legend:
[1] = Biodistribution of 177Lu-labeled αMSH analogues in mice bearing B16F10 mouse melanoma; assay type: in vivo, C57BL/6J mice; settings: mouse, iv, total radioactivity, C57BL/6J mice, B16F10 melanoma
Experimental: (§1) The B16-F10 mouse melanoma cells were cultured and inoculated in mice as described in Example 1.
(§2) For biodistribution studies, approximately 1-2 MBq of ^177Lu-labeled αMSH analogues via tail vein under anesthesia. At 1, 4, 24, and 120 h p.i., the mice were euthanized by CO2 inhalation. Organs/tissues were harvested and the radioactivity was measured as described in Example 1.

[2] = test system: B16F10 mouse melanoma; test: as above; assay type: in vivo, C57BL/6J mice; settings: C57BL/6J mice, B16F10 melanoma
Experimental: as §1, §2

tissue uptake at 1 h ([1]; male, seminal glands, 1 h p.i., read-out: Biodistribution, Seminal glands): 0.52 ± 0.15 %ID/g | tissue uptake at 4 h ([1]; male, seminal glands, 4 h p.i., read-out: Biodistribution, Seminal glands): 0.14 ± 0.04 %ID/g | tissue uptake at 24 h ([1]; male, seminal glands, 24 h p.i., read-out: Biodistribution, Seminal glands): 0.08 ± 0.07 %ID/g | tissue uptake at 120 h ([1]; male, seminal glands, 120 h p.i., read-out: Biodistribution, Seminal glands): 0.04 ± 0.03 %ID/g | tissue uptake at 4 h ([1]; male, testes, 4 h p.i., read-out: Biodistribution, Testes): 0.33 ± 0.08 %ID/g | tissue uptake at 24 h ([1]; male, testes, 24 h p.i., read-out: Biodistribution, Testes): 0.17 ± 0.01 %ID/g | tissue uptake at 120 h ([1]; male, testes, 120 h p.i., read-out: Biodistribution, Testes): 0.11 ± 0.01 %ID/g | tissue uptake at 1 h ([1]; adrenal glands, 1 h p.i., read-out: Biodistribution, Adrenal glands): 3.69 ± 2.09 %ID/g | tissue uptake at 4 h ([1]; adrenal glands, 4 h p.i., read-out: Biodistribution, Adrenal glands): 0.88 ± 0.41 %ID/g | tissue uptake at 24 h ([1]; adrenal glands, 24 h p.i., read-out: Biodistribution, Adrenal glands): 0.62 ± 0.34 %ID/g | tissue uptake at 120 h ([1]; adrenal glands, 120 h p.i., read-out: Biodistribution, Adrenal glands): 0.34 ± 0.23 %ID/g | tissue uptake at 1 h ([1]; blood, 1 h p.i., read-out: Biodistribution, Blood): 7.41 ± 1.64 %ID/g | tissue uptake at 4 h ([1]; blood, 4 h p.i., read-out: Biodistribution, Blood): 1.44 ± 0.39 %ID/g | tissue uptake at 24 h ([1]; blood, 24 h p.i., read-out: Biodistribution, Blood): 0.09 ± 0.02 %ID/g | tissue uptake at 120 h ([1]; blood, 120 h p.i., read-out: Biodistribution, Blood): 0.01 %ID/g | tissue uptake at 1 h ([1]; bone, 1 h p.i., read-out: Biodistribution, Bone): 0.98 ± 0.12 %ID/g | tissue uptake at 4 h ([1]; bone, 4 h p.i., read-out: Biodistribution, Bone): 0.3 ± 0.08 %ID/g | tissue uptake at 24 h ([1]; bone, 24 h p.i., read-out: Biodistribution, Bone): 0.23 ± 0.04 %ID/g | tissue uptake at 120 h ([1]; bone, 120 h p.i., read-out: Biodistribution, Bone): 0.13 ± 0.09 %ID/g | tissue uptake at 1 h ([1]; brain, 1 h p.i., read-out: Biodistribution, Brain): 0.13 ± 0.02 %ID/g | tissue uptake at 4 h ([1]; brain, 4 h p.i., read-out: Biodistribution, Brain): 0.04 ± 0.02 %ID/g | tissue uptake at 24 h ([1]; brain, 24 h p.i., read-out: Biodistribution, Brain): 0.02 ± 0.01 %ID/g | tissue uptake at 120 h ([1]; brain, 120 h p.i., read-out: Biodistribution, Brain): 0.01 ± 0.01 %ID/g | tissue uptake at 1 h ([1]; fat, 1 h p.i., read-out: Biodistribution, Fat): 0.65 ± 0.37 %ID/g | tissue uptake at 4 h ([1]; fat, 4 h p.i., read-out: Biodistribution, Fat): 0.16 ± 0.07 %ID/g | tissue uptake at 24 h ([1]; fat, 24 h p.i., read-out: Biodistribution, Fat): 0.06 ± 0.04 %ID/g | tissue uptake at 120 h ([1]; fat, 120 h p.i., read-out: Biodistribution, Fat): 0.03 ± 0.01 %ID/g | tissue uptake at 1 h ([1]; heart, 1 h p.i., read-out: Biodistribution, Heart): 1.84 ± 0.31 %ID/g | tissue uptake at 4 h ([1]; heart, 4 h p.i., read-out: Biodistribution, Heart): 0.4 ± 0.1 %ID/g | tissue uptake at 24 h ([1]; heart, 24 h p.i., read-out: Biodistribution, Heart): 0.13 ± 0.02 %ID/g | tissue uptake at 120 h ([1]; heart, 120 h p.i., read-out: Biodistribution, Heart): 0.07 ± 0.02 %ID/g | tissue uptake at 1 h ([1]; intestine, 1 h p.i., read-out: Biodistribution, Intestine): 1.39 ± 0.37 %ID/g | tissue uptake at 4 h ([1]; intestine, 4 h p.i., read-out: Biodistribution, Intestine): 0.37 ± 0.11 %ID/g | tissue uptake at 24 h ([1]; intestine, 24 h p.i., read-out: Biodistribution, Intestine): 0.18 ± 0.03 %ID/g | tissue uptake at 120 h ([1]; intestine, 120 h p.i., read-out: Biodistribution, Intestine): 0.43 ± 0.55 %ID/g | tissue uptake at 1 h ([1]; kidneys, 1 h p.i., read-out: Biodistribution, Kidneys): 13.2 ± 3.61 %ID/g | tissue uptake at 4 h ([1]; kidneys, 4 h p.i., read-out: Biodistribution, Kidneys): 13.5 ± 3.47 %ID/g | tissue uptake at 24 h ([1]; kidneys, 24 h p.i., read-out: Biodistribution, Kidneys): 8.1 ± 2.24 %ID/g | tissue uptake at 120 h ([1]; kidneys, 120 h p.i., read-out: Biodistribution, Kidneys): 1.85 ± 0.57 %ID/g | tissue uptake at 1 h ([1]; liver, 1 h p.i., read-out: Biodistribution, Liver): 2.72 ± 0.27 %ID/g | tissue uptake at 4 h ([1]; liver, 4 h p.i., read-out: Biodistribution, Liver): 1.98 ± 0.41 %ID/g | tissue uptake at 24 h ([1]; liver, 24 h p.i., read-out: Biodistribution, Liver): 4.7 ± 3.76 %ID/g | tissue uptake at 120 h ([1]; liver, 120 h p.i., read-out: Biodistribution, Liver): 0.55 ± 0.18 %ID/g | tissue uptake at 1 h ([1]; lungs, 1 h p.i., read-out: Biodistribution, Lungs): 5.51 ± 1.75 %ID/g | tissue uptake at 4 h ([1]; lungs, 4 h p.i., read-out: Biodistribution, Lungs): 2.34 ± 1.21 %ID/g | tissue uptake at 24 h ([1]; lungs, 24 h p.i., read-out: Biodistribution, Lungs): 1.19 ± 0.81 %ID/g | tissue uptake at 120 h ([1]; lungs, 120 h p.i., read-out: Biodistribution, Lungs): 0.1 ± 0.05 %ID/g | tissue uptake at 1 h ([1]; muscle, 1 h p.i., read-out: Biodistribution, Muscle): 0.76 ± 0.14 %ID/g | tissue uptake at 4 h ([1]; muscle, 4 h p.i., read-out: Biodistribution, Muscle): 0.17 ± 0.04 %ID/g | tissue uptake at 24 h ([1]; muscle, 24 h p.i., read-out: Biodistribution, Muscle): 0.06 ± 0.02 %ID/g | tissue uptake at 120 h ([1]; muscle, 120 h p.i., read-out: Biodistribution, Muscle): 0.03 ± 0.01 %ID/g | tissue uptake at 1 h ([1]; pancreas, 1 h p.i., read-out: Biodistribution, Pancreas): 1.23 ± 0.18 %ID/g | tissue uptake at 4 h ([1]; pancreas, 4 h p.i., read-out: Biodistribution, Pancreas): 0.31 ± 0.1 %ID/g | tissue uptake at 24 h ([1]; pancreas, 24 h p.i., read-out: Biodistribution, Pancreas): 0.1 ± 0.01 %ID/g | tissue uptake at 120 h ([1]; pancreas, 120 h p.i., read-out: Biodistribution, Pancreas): 0.06 ± 0.01 %ID/g | tissue uptake at 1 h ([1]; spleen, 1 h p.i., read-out: Biodistribution, Spleen): 1.99 ± 0.38 %ID/g | tissue uptake at 4 h ([1]; spleen, 4 h p.i., read-out: Biodistribution, Spleen): 0.83 ± 0.1 %ID/g | tissue uptake at 24 h ([1]; spleen, 24 h p.i., read-out: Biodistribution, Spleen): 1 ± 0.35 %ID/g | tissue uptake at 120 h ([1]; spleen, 120 h p.i., read-out: Biodistribution, Spleen): 0.3 ± 0.12 %ID/g | tissue uptake at 1 h ([1]; stomach, 1 h p.i., read-out: Biodistribution, Stomach): 1.2 ± 0.45 %ID/g | tissue uptake at 4 h ([1]; stomach, 4 h p.i., read-out: Biodistribution, Stomach): 0.26 ± 0.14 %ID/g | tissue uptake at 24 h ([1]; stomach, 24 h p.i., read-out: Biodistribution, Stomach): 0.31 ± 0.17 %ID/g | tissue uptake at 120 h ([1]; stomach, 120 h p.i., read-out: Biodistribution, Stomach): 1.83 ± 2.7 %ID/g | tissue uptake at 1 h ([1]; thyroid, 1 h p.i., read-out: Biodistribution, Thyroid): 1.68 ± 0.26 %ID/g | tissue uptake at 4 h ([1]; thyroid, 4 h p.i., read-out: Biodistribution, Thyroid): 0.51 ± 0.13 %ID/g | tissue uptake at 24 h ([1]; thyroid, 24 h p.i., read-out: Biodistribution, Thyroid): 0.24 ± 0.04 %ID/g | tissue uptake at 120 h ([1]; thyroid, 120 h p.i., read-out: Biodistribution, Thyroid): 0.15 ± 0.03 %ID/g | tissue to tissue ratio at 1 h ([1]; tumour/blood, 1 h p.i., read-out: Tumour/blood): 1.42 ± 0.2 | tissue to tissue ratio at 4 h ([1]; tumour/blood, 4 h p.i., read-out: Tumour/blood): 7.97 ± 2.18 | tissue to tissue ratio at 24 h ([1]; tumour/blood, 24 h p.i., read-out: Tumour/blood): 60.6 ± 23.8 | tissue to tissue ratio at 120 h ([1]; tumour/blood, 120 h p.i., read-out: Tumour/blood): 84.4 ± 47.2 | tissue to tissue ratio at 1 h ([1]; tumour/kidney, 1 h p.i., read-out: Tumour/kidney): 0.8 ± 0.09 | tissue to tissue ratio at 4 h ([1]; tumour/kidney, 4 h p.i., read-out: Tumour/kidney): 0.85 ± 0.24 | tissue to tissue ratio at 24 h ([1]; tumour/kidney, 24 h p.i., read-out: Tumour/kidney): 0.68 ± 0.22 | tissue to tissue ratio at 120 h ([1]; tumour/kidney, 120 h p.i., read-out: Tumour/kidney): 0.45 ± 0.21 | tissue to tissue ratio at 1 h ([1]; tumour/muscle, 1 h p.i., read-out: Tumour/muscle): 13.8 ± 2.48 | tissue to tissue ratio at 4 h ([1]; tumour/muscle, 4 h p.i., read-out: Tumour/muscle): 65.4 ± 13.7 | tissue to tissue ratio at 24 h ([1]; tumour/muscle, 24 h p.i., read-out: Tumour/muscle): 104 ± 53 | tissue to tissue ratio at 120 h ([1]; tumour/muscle, 120 h p.i., read-out: Tumour/muscle): 35.6 ± 22.4 | excreta dose per gram or mL at 1 h ([1]; urine, 1 h p.i.): 322 ± 306 %ID/g | excreta dose per gram or mL at 4 h ([1]; urine, 4 h p.i.): 106 ± 97.1 %ID/g | excreta dose per gram or mL at 24 h ([1]; urine, 24 h p.i.): 3.17 ± 1.25 %ID/g | excreta dose per gram or mL at 120 h ([1]; urine, 120 h p.i.): 0.51 ± 0.21 %ID/g | Biodistribution, B16F10 tumour ([2]; 1 h p.i.): 10.6 ± 2.95 % ID/g | Biodistribution, B16F10 tumour ([2]; 4 h p.i.): 10.9 ± 2.22 % ID/g | Biodistribution, B16F10 tumour ([2]; 24 h p.i.): 5.50 ± 2.36 % ID/g | Biodistribution, B16F10 tumour ([2]; 120 h p.i.): 0.88 ± 0.58 % ID/g
Structure (SMILES): CCCC[C@H](NC(=O)CN1CCC(NC(=O)[C@H](CCCCNC(=O)CN2CCN(CC(=O)O)CCN(CC(=O)O)CCN(CC(=O)O)CC2)NC(=O)[C@H](CCC(=O)O)NC(=O)CCCc2ccc(I)cc2)CC1)C(=O)N[C@H]1CC(=O)NCCCC[C@@H](C(N)=O)N(C)C(=O)[C@H](Cc2c[nH]c3ccccc23)N(C)C(=O)[C@H](CCCNC(=N)N)N(C)C(=O)[C@@H](Cc2ccccc2)NC(=O)[C@H](Cc2c[nH]cn2)N(C)C1=O [^177Lu-labeled CCZ01088, metal not drawn]
